Data set [1] relates to liver gene expression. Briefly: RT-qPCR of liver genes. The format is in vivo, mice. To be noted: liver RT-qPCR vs HFD+veh. As to the method: Total RNA was extracted using 50 mg of frozen liver powder. The powder was homogenized in 1 mL of TRIzol solution (Invitrogen, #15-596-026) and 200 μl of chloroform, shaken vigorously for 15 seconds, and incubate at RT for 2-3 min. Lysates were centrifuged at 12000 g for 15 min at 4° C. The upper aqueous phase was transferred in a new ice-cold tube and diluted with 500 μl of ice-cold isopropyl alcohol and incubate at RT for 10 min. Tubes were centrifuged at 12000 g for 10 min at 4° C. The RNA pellet was washed twice using ice-cold 75% ethanol and centrifugation for 5 min at 7500 g at 4° C. The RNA pellet was dissolved in RNase-free H2O and the concentration was measured using Nanodrop 2000 (Thermo Fisher Scientific). […] The RNA sample (1 μg) was subjected to reverse transcription with the iScript cDNA synthesis kit. The TaqMan gene expression assays-on-demand system (Applied Biosystems, Foster City, CA, USA) was used for gene expression assessment by quantitative PCR (qPCR) using GAPDH as housekeeping gene using the comparative Ct method.

A further data set relates to LncRNA GM15441. Briefly: Fluorescence RNA in-situ hybridization for GM15441. To be noted: livers of HFD-treated groups. It is filed as in vivo, mice. As to the method: Fluorescence RNA in-situ hybridization was performed on tissue sections using LNA ISH Optimization Kits (Qiagen, #339459) according to manufacturer's instructions. Briefly, the sectioning slides were deparaffinized and digested by proteinase K approach for 15 min at 37° C. U6, scrambled RNA, and GM15441 (LCD0173184) probes were hybridized at final concentration of 1 nM, 40 nM and 40 nM, respectively, followed by stringent washes of serial diluted SSC (Sigma, #S6639-1 L). After 30 min blocking, the slides were incubated with anti-DIG-POD (Roche, #11207733910) at 1:400 dilution for 60 min at RT according to manufacturer's instructions. TSA-plus Cyanine 3 (Akoya Bioscience, #NEL744001KT) substrate was added to the sections and incubated twice (5 min per incubation) to amplify the fluorescence signal. NucBlue Live ReadyProbes Reagent was applied to the slides at last to facilitate cell nuclei staining. Images were acquired on a fluorescent microscope (Leica, DMi8) using the Ocular Advanced Scientific Camera Control software (Digital Optics Limited).

The subject of data set [2] is liver gene expression. Briefly: RNA-Sequencing of livers with IPA pathway analysis. It is filed as in vivo, mice. As for the experimental part:
Bioinformatics and Biostatistics Analyses on RNA Sequencing Data Transcriptome sequencing was performed on mice samples from each group with four replicates per condition. Quality control was first performed on the raw sequencing data by tool FastQC. Then low-quality reads and adapter sequences were trimmed out by tool Trimmomatic. After pre-processing, the surviving reads were aligned into mouse reference genome mm10 by STAR aligner. Gene counts per gene per sample were quantified by function—quantMode GeneCounts supported by the STAR aligner. Gene expression normalization was performed by R package DEseq2.
Given the gene expression profile, differential expression analyses were performed based on gene counts by DEseq2 package. Five pairwise comparisons were analyzed: LFD+Veh vs LFD+11D3, HFD+Veh vs HFD+11D3, HFD+Veh vs HFD+11U3, HFD+Veh vs HFD+11U3-2M and LFD+Veh vs HFD+Veh. Differentially expressed genes (DEGs) were defined by FDR=5% and absolute fold-change equal to or greater than 1.5. For the downstream analysis, Ingenuity Pathways Analysis (IPA) was employed to perform pathway enrichment analysis on the DEGs. Significant pathways were defined by FDR=5%. Regulation directions were measured by Z-scores, where a positive Z-score indicates activation of the pathway and a negative Z-score means inhibition, while some pathways show out unknown or mix of regulation directions.

On the set-up of data set [3]: species or system mice. To be noted: mouse, in vivo. As to the method: Male C57BL/6J (12 weeks old) mice were used to measure the absorption and metabolism of FuFA. In this procedure, I1D3 (50 mg/kg), I 1U3 (50 mg/kg), I1U3-2M (50 mg/kg) and D31-palmitic acid (10 mg/kg) were administered simultaneously (cassette dosing) to single animal. Consequently, the relative pharmacokinetics of multiple compounds can be assessed rapidly with a small number of experimental animals. The compounds were injected either intraperitoneally (n=5) or by gavage (n=5). At 1, 2 and 4h after injection, a small incision on the tail vein was performed and microhematocrit capillary tubes (FisherBrand, #22-362566) were used to collect serial blood samples ([…] per collection). At 6h, mice were anesthetized, and blood was collected from the vena cava in a terminal blood draw. Blood samples were processed as described above to collect plasma. The pharmacokinetics (PK) of free FuFAs and D31-palmitic acid and their esters found in complex lipids were evaluated using 10 μl of plasma. Briefly, 20 μl of water were added to the […] of plasma and divided into 2 glass tubes. The sample in one tube was measured as is using GC-MS upon derivatization and the other sample was hydrolyzed before derivatization and quantification. […] For the total FA quantification, basic hydrolysis was performed using 500 μl of 1M KOH in MeOH and incubated for 1 h at 60° C. […]

Here are results for one compound from patent US20250361217A1, “FATTY ACID COMPOUNDS” (University of Pittsburgh - Of the Commonwealth System of …, priority 2022, published 2025).

Molecules are shown by their SMILES.

On to `CCCc1ccc(CCCCCCCCCC(C)(C)C(=O)O)o1` [11U3-2M, 2,2-Dimethyl-11-(5-propylfuran-2-yl)undecanoic acid], for which, in the data set on liver gene expression [1], the “LncRNA GM10804 decreased” value is recorded as 3.3 fold, the “LncRNA GM15441 increased” value worked out at 320 fold and the PDK4 increase came out at 9.3 fold. The “GM15441 in-situ hybridization signal” value in the data set on LncRNA GM15441 was “only detected in the nucleus of cells from 11U3-2M treated livers”. Also, in the data set on liver gene expression [2] (liver RNA-Seq DEGs vs HFD+veh), the “activated pathways (Ingenuity Pathway Analysis)” value is reported as “FA β-oxidation was the most activated pathway”. For the same compound, in the data set with liver gene expression [2] (liver RNA-Seq vs HFD+veh), the “LncRNA GM10804 downregulated” value is reported as 5 fold, the “LncRNA GM15441 increased” value turned out to be 137 fold and the “increase in PDK4 gene” value was 7 fold. For the same compound, in data set [3], the absorption pathway entry is “absorbed through the hepatic portal vein”. Further, in data set [3] (po, 50 mg/kg), the “oral stability (half-lives) compared with natural FuFAs” value is recorded as “longer half-lives”.
